In patent US11447505B1, “Pyrrolo[2,3-b]pyridine compounds and their use in the treatment of cancer” (priority 2017, dated 2022):
Like-named read-outs stand apart in the source and are kept apart here.

What was measured:
[1] = molecular target: MRCKα (Homo sapiens (Human), UniProt Q5VT25); assay: MRCKα kinase assay (IMAP fluorescence polarization); format: biochemical
From the text: (§1) MRCKα, MRCKβ, ROCK1 and ROCK2 Kinase Assays

[2] = molecular target: T1, MRCKβ (Homo sapiens (Human), UniProt Q9Y5S2); assay: MRCKβ kinase assay (IMAP fluorescence polarization); format: biochemical
From the text: as §1

[3] = molecular target: T1, MRCKβ; assay: MRCKβ cellular assay (pMLC T18/S19 immunoblot, MDA-MB-231 cells with doxycycline inducible kinase domain); format: cell-based
Description: (§2) MRCKβ, ROCK1 and ROCK2 Cellular Assays
(§3) MDA-MB-231 cells expressing doxycycline inducible ROCK1, ROCK2 or MRCKβ kinase domains were plated at 1.1×10^5 cells per well of a 12 well plate. After 24 hours, cells were treated with 1 μg/ml doxycycline for 18 hours to induce kinase domain expression and then tested over a suitable concentration range with compounds of the invention for 60 minutes. Cells were then washed with PBS and lysed with Tris-SDS lysis Buffer (50 mM Tris-HCl pH7.4, 0.5% (v/v) SDS, 1×PhosStop Inhibitors (04 906 837 001; Roche) and 1×Complete Protease Inhibitors (04 693 124 001; Roche)). Whole cell lysates were clarified by passing through QIAshredder spin columns, separated by SDS-PAGE, and quantitative immunoblotting performed using a LI-COR Odyssey IR scanner to determine pMLC (T18/S19) and α-Tubulin levels.

[4] = molecular target: T2, ROCK1 (Homo sapiens (Human), UniProt Q13464); conditions: read-out: ROCK1 Average Ki; 1 μM ATP
T2 sequence (Q13464 2-1354 limits assumed): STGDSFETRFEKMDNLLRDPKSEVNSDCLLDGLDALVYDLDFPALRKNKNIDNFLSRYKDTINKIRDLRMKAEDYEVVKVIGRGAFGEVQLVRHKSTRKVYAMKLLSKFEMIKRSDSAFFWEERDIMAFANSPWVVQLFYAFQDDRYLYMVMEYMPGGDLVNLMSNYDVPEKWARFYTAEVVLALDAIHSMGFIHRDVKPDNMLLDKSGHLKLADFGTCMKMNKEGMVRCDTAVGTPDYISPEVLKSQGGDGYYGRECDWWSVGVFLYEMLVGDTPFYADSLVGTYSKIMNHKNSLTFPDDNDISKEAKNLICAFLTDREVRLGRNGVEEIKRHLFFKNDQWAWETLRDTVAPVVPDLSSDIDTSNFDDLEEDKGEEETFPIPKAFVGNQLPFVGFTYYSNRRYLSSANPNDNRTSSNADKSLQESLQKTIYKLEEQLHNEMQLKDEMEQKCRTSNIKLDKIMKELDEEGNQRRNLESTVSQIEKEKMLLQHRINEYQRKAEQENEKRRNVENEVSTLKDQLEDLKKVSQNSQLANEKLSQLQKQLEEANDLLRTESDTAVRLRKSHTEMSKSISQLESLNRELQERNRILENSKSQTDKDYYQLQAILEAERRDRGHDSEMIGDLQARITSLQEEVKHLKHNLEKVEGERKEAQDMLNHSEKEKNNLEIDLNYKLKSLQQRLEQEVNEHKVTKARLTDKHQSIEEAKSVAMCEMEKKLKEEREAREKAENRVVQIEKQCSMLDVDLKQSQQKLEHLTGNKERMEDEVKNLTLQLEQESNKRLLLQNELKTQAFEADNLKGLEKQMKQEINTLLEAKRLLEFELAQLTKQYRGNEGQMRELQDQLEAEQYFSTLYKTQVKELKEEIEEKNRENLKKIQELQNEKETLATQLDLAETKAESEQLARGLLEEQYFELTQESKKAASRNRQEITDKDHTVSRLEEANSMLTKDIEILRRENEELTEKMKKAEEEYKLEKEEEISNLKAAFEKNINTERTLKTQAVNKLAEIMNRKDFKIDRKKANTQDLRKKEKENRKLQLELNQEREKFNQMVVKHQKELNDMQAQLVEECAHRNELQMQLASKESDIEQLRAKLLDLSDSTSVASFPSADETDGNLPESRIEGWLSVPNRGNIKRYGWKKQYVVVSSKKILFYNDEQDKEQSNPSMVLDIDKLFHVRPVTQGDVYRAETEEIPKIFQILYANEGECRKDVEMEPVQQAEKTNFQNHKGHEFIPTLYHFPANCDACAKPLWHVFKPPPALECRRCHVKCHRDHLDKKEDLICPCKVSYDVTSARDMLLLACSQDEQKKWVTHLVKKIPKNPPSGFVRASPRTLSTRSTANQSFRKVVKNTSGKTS

[5] = molecular target: T2, ROCK1; assay: ROCK1 cellular assay (pMLC T18/S19 immunoblot, MDA-MB-231 cells with doxycycline inducible kinase domain); format: cell-based
Description: as §2, §3

[6] = molecular target: ROCK2 (Homo sapiens (Human), UniProt O75116); assay: ROCK2 kinase assay (IMAP fluorescence polarization); format: biochemical
Chain of ROCK2 (O75116 whole entry): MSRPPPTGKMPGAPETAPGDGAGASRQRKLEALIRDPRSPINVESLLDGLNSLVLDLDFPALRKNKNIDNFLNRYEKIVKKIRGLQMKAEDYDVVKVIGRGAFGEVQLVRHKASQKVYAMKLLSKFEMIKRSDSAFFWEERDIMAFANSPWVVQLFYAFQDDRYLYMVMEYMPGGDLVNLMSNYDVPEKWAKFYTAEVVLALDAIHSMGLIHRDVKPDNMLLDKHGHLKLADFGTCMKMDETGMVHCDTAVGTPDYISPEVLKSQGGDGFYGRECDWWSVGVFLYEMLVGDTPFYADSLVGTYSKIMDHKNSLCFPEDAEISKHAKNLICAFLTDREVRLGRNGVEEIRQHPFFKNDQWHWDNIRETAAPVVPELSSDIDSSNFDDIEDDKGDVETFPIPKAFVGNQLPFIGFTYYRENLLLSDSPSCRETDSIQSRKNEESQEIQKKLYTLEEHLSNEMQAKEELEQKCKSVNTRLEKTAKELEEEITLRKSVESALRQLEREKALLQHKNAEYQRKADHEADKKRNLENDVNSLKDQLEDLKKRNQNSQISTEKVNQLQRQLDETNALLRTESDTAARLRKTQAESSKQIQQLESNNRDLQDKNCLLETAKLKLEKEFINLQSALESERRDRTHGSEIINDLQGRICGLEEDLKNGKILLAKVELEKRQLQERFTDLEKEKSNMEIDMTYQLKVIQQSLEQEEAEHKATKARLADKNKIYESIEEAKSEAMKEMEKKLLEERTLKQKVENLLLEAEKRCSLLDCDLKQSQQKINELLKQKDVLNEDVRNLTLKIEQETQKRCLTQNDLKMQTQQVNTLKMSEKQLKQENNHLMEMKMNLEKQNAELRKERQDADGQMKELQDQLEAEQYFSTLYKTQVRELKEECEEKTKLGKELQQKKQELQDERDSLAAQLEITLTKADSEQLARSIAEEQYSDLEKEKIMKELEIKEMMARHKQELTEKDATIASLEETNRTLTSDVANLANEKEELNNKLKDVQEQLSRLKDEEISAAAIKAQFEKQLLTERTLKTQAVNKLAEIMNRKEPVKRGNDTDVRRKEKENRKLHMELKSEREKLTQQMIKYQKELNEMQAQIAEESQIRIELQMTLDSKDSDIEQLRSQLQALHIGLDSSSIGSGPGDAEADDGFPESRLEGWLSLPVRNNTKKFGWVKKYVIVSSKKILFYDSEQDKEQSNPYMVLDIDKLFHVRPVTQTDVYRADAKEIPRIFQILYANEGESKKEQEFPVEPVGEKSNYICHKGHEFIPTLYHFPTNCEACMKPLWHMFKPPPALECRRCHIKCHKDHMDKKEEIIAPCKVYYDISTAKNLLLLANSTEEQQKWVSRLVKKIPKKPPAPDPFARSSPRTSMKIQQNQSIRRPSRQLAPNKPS

[7] = molecular target: T2, ROCK1; assay: biochemical
[8] = 1 μM ATP, read-out: MRCK-a Average Ki
[9] = 1 μM ATP, read-out: MRCK-B Average Ki
[10] = MDA-MB-231 cells, doxycycline inducible kinase domain, 60 minutes, pMLC (T18/S19), read-out: Cellular assay - MRCK-b inhibition MEAN
[11] = MDA-MB-231 cells, doxycycline inducible kinase domain, 60 minutes, pMLC (T18/S19), read-out: Cellular assay - ROCK1 inhibition MEAN
[12] = 1 μM ATP, read-out: ROCK2 Average Ki

Chain of MRCKα (Q5VT25 whole entry): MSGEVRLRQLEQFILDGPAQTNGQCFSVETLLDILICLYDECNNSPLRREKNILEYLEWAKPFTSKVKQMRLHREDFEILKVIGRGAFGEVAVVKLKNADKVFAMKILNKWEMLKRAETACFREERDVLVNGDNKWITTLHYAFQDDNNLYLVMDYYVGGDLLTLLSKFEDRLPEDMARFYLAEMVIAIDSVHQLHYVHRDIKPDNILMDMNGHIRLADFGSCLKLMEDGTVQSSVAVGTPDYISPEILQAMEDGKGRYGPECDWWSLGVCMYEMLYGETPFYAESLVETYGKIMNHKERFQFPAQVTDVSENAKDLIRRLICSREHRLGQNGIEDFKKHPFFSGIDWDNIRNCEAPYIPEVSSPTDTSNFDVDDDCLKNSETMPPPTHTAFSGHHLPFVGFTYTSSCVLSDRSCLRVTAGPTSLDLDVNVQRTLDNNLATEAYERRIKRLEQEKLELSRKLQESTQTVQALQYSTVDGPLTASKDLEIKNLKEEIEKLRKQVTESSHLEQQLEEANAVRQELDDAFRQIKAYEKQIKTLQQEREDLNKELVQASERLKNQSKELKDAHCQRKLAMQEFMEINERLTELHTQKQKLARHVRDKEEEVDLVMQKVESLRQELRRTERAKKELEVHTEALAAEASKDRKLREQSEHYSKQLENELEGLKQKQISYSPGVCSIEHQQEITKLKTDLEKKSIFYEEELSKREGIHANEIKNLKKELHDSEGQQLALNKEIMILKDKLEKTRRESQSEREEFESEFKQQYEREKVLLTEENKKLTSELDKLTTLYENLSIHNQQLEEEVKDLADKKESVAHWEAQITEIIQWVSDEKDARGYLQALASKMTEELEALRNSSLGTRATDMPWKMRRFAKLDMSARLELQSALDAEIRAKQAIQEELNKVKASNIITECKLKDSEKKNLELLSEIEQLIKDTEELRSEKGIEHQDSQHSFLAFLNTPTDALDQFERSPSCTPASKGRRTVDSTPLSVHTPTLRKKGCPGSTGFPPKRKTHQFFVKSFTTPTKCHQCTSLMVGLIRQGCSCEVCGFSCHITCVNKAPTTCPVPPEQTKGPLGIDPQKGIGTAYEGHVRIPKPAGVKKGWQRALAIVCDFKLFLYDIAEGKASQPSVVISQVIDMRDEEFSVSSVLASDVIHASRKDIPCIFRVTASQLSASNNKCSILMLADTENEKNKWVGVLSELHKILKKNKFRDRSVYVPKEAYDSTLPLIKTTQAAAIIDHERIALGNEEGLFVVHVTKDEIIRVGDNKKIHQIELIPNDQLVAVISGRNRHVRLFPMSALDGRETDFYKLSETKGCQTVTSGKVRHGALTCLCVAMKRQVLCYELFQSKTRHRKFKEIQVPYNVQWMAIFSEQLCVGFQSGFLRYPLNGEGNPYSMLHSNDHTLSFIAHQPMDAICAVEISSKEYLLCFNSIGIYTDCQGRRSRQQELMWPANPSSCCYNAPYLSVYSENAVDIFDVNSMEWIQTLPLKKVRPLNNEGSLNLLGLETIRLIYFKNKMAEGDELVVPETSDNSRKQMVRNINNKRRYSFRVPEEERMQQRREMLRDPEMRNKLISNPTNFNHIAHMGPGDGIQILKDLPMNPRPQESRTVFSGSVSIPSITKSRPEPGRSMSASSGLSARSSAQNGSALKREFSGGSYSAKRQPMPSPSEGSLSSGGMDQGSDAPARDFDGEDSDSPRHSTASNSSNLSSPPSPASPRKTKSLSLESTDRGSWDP

Row | Compound | Ki [1, 8] | Ki [2, 9] | IC50 [3, 10] | Ki [4] | IC50 [5, 11] | Ki [6, 12] | Ki [7] | Ki [1] | Ki [2] | IC50 [3] | Ki [6] | IC50 [5]
1 | 3-ethyl-1-[3-(5-methylthiazol-2-yl)-1H-pyrrolo[2,3-b]pyridin-4-yl]piperidin-3-amine [Example E177] | 0.0822 nM | 0.0888 nM | 274 nM | 33.7 nM | > 30000 nM | 96.2 nM | – | – | – | – | – | –
2 | c1cc(-c2c[nH]c3nccc(N4CCC[C@H](NC5CC5)C4)c23)cnn1 [Example E46, (3S)-N-cyclopropyl-1-(3-pyridazin-4-yl-1H-pyrrolo[2,3-b]pyridin-4-yl)piperidin-3-amine] | 0.322 nM | 0.238 nM | 1540 nM | – | – | 233 nM | 11.9 nM | – | – | – | – | –
3 | CN[C@H]1CCCN(c2ccnc3[nH]cc(-c4nccs4)c23)C1 [Example E47, (3S)-N-methyl-1-(3-thiazol-2-yl-1H-pyrrolo[2,3-b]pyridin-4-yl)piperidin-3-amine] | 0.158 nM | 0.304 nM | 1530 nM | – | – | 103 nM | 595 nM | – | – | – | – | –
4 | CN[C@H]1CCCN(c2ccnc3[nH]cc(-c4ccncn4)c23)C1 [Example E66, (3S)-N-methyl-1-(3-pyrimidin-4-yl-1H-pyrrolo[2,3-b]pyridin-4-yl)piperidin-3-amine] | 0.238 nM | 0.17 nM | 1780 nM | – | – | 99.2 nM | 241 nM | – | – | – | – | –
5 | OC1CCN([C@H]2CCCN(c3ccnc4[nH]cc(-c5cncnc5)c34)C2)C1 (stereo partly drawn) [Example E93, [(3S)-1-(3-pyrimidin-5-yl-1H-pyrrolo[2,3-b]pyridin-4-yl)-3-piperidyl]pyrrolidin-3-ol] | 11.6 nM | 4.78 nM | – | – | – | 830 nM | 2380 nM | – | – | – | – | –
6 | c1cc(N2CCCC3(CCCCN3)C2)c2c(-c3cnsc3)c[nH]c2n1 (stereo not shown) [Example E114, 4-[4-(1,8-diazaspiro[5.5]undecan-8-yl)-1H-pyrrolo[2,3-b]pyridin-3-yl]isothiazole] | 0.0683 nM | 0.0813 nM | 40.5 nM | – | – | 6.42 nM | 18.3 nM | – | – | – | – | –
7 | c1ncc(-c2c[nH]c3nccc(N4CC[C@@]5(CCCCN5)C4)c23)cn1 [Example E126, (5S)-2-(3-pyrimidin-5-yl-1H-pyrrolo[2,3-b]pyridin-4-yl)-2,6-diazaspiro[4.5]decane] | 0.0413 nM | 0.057 nM | 1270 nM | 68.3 nM | > 30000 nM | 23.1 nM | – | – | – | – | – | –
8 | c1cc(-c2c[nH]c3nccc(N4CC[C@@]5(CCCCN5)C4)c23)ncn1 [Example E128, (5S)-2-(3-pyrimidin-4-yl-1H-pyrrolo[2,3-b]pyridin-4-yl)-2,6-diazaspiro[4.5]decane] | 0.0317 nM | 0.0652 nM | 420 nM | 10.6 nM | – | 4.41 nM | – | – | – | – | – | –
9 | c1cc(N2CCC3(CCCCN3)C2)c2c(-c3ncsn3)c[nH]c2n1 (stereo not shown) [Example E129, 3-[4-(2,6-diazaspiro[4.5]decan-2-yl)-1H-pyrrolo[2,3-b]pyridin-3-yl]-1,2,4-thiadiazole] | – | – | – | – | – | – | 108 nM | 0.0518 nM | 0.206 nM | 729 nM | 23.6 nM | –
10 | c1csc(-c2c[nH]c3nccc(N4CC[C@@]5(CCCCN5)C4)c23)n1 [Example E133, 2-[4-[(5S)-2,6-diazaspiro[4.5]decan-2-yl]-1H-pyrrolo[2,3-b]pyridin-3-yl]thiazole] | – | – | – | – | – | – | 25.9 nM | 0.0149 nM | 0.03 nM | 108 nM | 6.41 nM | –
11 | c1ccc(-c2c[nH]c3nccc(N4CCC[C@@]5(CCCCN5)C4)c23)nc1 [Example E139, (6S)-8-[3-(2-pyridyl)-1H-pyrrolo[2,3-b]pyridin-4-yl]-1,8-diazaspiro[5.5]undecane] | 0.0435 nM | 0.0391 nM | 107 nM | 99.1 nM | > 30000 nM | 41 nM | – | – | – | – | – | –
12 | c1csc(-c2c[nH]c3nccc(N4CCC5(CCCCN5)C4)c23)n1 (stereo not shown) [Example E155, 2-[4-(2,6-diazaspiro[4.5]decan-2-yl)-1H-pyrrolo[2,3-b]pyridin-3-yl]thiazole] | – | – | – | – | – | – | 79.5 nM | – | 0.0822 nM | 218 nM | – | –
13 | c1cc(-c2c[nH]c3nccc(N4CCCC5(CCCCN5)C4)c23)ncn1 (stereo not shown) [Example E168, 8-(3-pyrimidin-4-yl-1H-pyrrolo[2,3-b]pyridin-4-yl)-1,8-diazaspiro[5.5]undecane] | – | 0.065 nM | < 30 nM | 89 nM | – | 30.9 nM | – | – | – | – | – | –
14 | Fc1cccnc1-c1c[nH]c2nccc(N3CCCC4(CCCCN4)C3)c12 (stereo not shown) [Example E169, 8-[3-(3-fluoro-2-pyridyl)-1H-pyrrolo[2,3-b]pyridin-4-yl]-1,8-diazaspiro[5.5]undecane] | 0.189 nM | 0.106 nM | 732 nM | – | – | 261 nM | 861 nM | – | – | – | – | –
15 | Fc1ccc(-c2c[nH]c3nccc(N4CCCC5(CCCCN5)C4)c23)nc1 (stereo not shown) [Example E170, 8-[3-(5-fluoro-2-pyridyl)-1H-pyrrolo[2,3-b]pyridin-4-yl]-1,8-diazaspiro[5.5]undecane] | 0.17 nM | 0.1 nM | 612 nM | – | – | 165 nM | 564 nM | – | – | – | – | –
16 | Fc1cncc(-c2c[nH]c3nccc(N4CCCC5(CCCCN5)C4)c23)c1 (stereo not shown) [Example E171, 8-[3-(5-fluoro-3-pyridyl)-1H-pyrrolo[2,3-b]pyridin-4-yl]-1,8-diazaspiro[5.5]undecane] | 0.0639 nM | 0.0648 nM | 233 nM | – | – | 85.2 nM | 207 nM | – | – | – | – | –
17 | CC1(N)CCCN(c2ccnc3[nH]cc(-c4nccs4)c23)C1 (stereo not shown) [Example E176, 3-methyl-1-(3-thiazol-2-yl-1H-pyrrolo[2,3-b]pyridin-4-yl)piperidin-3-amine] | 0.0934 nM | 0.0923 nM | 255 nM | – | – | 42 nM | 67.1 nM | – | – | – | – | –
18 | CC1(N)CCCN(c2ccnc3[nH]cc(-c4cncnc4)c23)C1 (stereo not shown) [Example E178, 3-methyl-1-(3-pyrimidin-5-yl-1H-pyrrolo[2,3-b]pyridin-4-yl)piperidin-3-amine] | 0.517 nM | 0.181 nM | 622 nM | 423 nM | – | 119 nM | – | – | – | – | – | –
19 | N#Cc1c[nH]c2nccc(N3CCC[C@@]4(CCCCN4)C3)c12 [Example E187, 4-[(6S)-1,8-diazaspiro[5.5]undecan-8-yl]-1H-pyrrolo[2,3-b]pyridine-3-carbonitrile] | 0.249 nM | 0.179 nM | – | 152 nM | – | 44.2 nM | – | – | – | 782 nM | – | > 30000 nM
20 | CN1CCCC[C@@]12CCCN(c1ccnc3[nH]cc(-c4ccncn4)c13)C2 [Example E206, (6S)-1-methyl-8-(3-pyrimidin-4-yl-1H-pyrrolo[2,3-b]pyridin-4-yl)-1,8-diazaspiro[5.5]undecane] | 0.0189 nM | 0.0277 nM | 138 nM | 20.6 nM | > 30000 nM | 4.19 nM | – | – | – | – | – | –
21 | c1ncc(-c2c[nH]c3nccc(OC[C@H]4CCCNC4)c23)cn1 [Example E218, 4-[[(3S)-3-piperidyl]methoxy]-3-pyrimidin-5-yl-1H-pyrrolo[2,3-b]pyridine] | 0.189 nM | 1.15 nM | – | – | – | 17.6 nM | 18.6 nM | – | – | – | – | –
22 | CN1CCC[C@@H](COc2ccnc3[nH]cc(-c4cncnc4)c23)C1 [Example E224, 4-[[(3R)-1-methyl-3-piperidyl]methoxy]-3-pyrimidin-5-yl-1H-pyrrolo[2,3-b]pyridine] | 1.91 nM | 3.29 nM | – | – | – | 102 nM | 152 nM | – | – | – | – | –
